Source: ChEMBL document CHEMBL1201862, “PubChem BioAssay data set” (2004)
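Following 48 hours of exposure in 96-well plates, responses at five concentrations were used to interpolate endpoints linearly. Abbreviation: GI50, concentration required for 50% inhibition of growth.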 Activity calls are given as the source filed them. Cut-off read from the data, not from the text of the source: active = GI50 up to about 1.1 µM and inactive = higher. Where a SMILES comes first, the peptide text is derived from it. [ ]: non-standard residue; d: D form. The star is where a group is joined. Cbz = O=C(OCc1ccccc1)*; Aib = CC(C)(N)C(=O)O; OBn = c1ccc(CO*)cc1

What was measured:
Test in all cases: NCI anticancer screen, dose series, 48 h
786-0 = system: 786-0
A549 = system: A549
ACHN = system: ACHN
CAKI-1 = system: CAKI-1
DU-145 = system: DU-145
HCT-116 = system: HCT-116
HOP-92 = system: HOP-92
IGROV-1 = system: IGROV-1
NCI-H522 = system: NCI-H522
RPMI-8226 = system: RPMI-8226
SF-268 = system: SF-268
SF-295 = system: SF-295
SK-MEL-5 = system: SK-MEL-5
T47D = system: T47D
TK-10 = system: TK-10
UO-31 = system: UO-31
CCRF-CEM = system: CCRF-CEM
M14 = system: M14
SNB-75 = system: SNB-75

Row | SMILES | GI50 (786-0) | GI50 (A549) | GI50 (ACHN) | GI50 (CAKI-1) | GI50 (DU-145) | GI50 (HCT-116) | GI50 (HOP-92) | GI50 (IGROV-1) | GI50 (NCI-H522) | GI50 (RPMI-8226) | GI50 (SF-268) | GI50 (SF-295) | GI50 (SK-MEL-5) | GI50 (T47D) | GI50 (TK-10) | GI50 (UO-31) | GI50 (CCRF-CEM) | GI50 (M14) | GI50 (SNB-75)
1 | O=c1[nH]nc(Cc2ccccc2)n1/N=C/c1ccccc1Cl | 41.1 µM (inactive) | > 100 µM (inactive) | > 100 µM (inactive) | > 100 µM (inactive) | > 100 µM (inactive) | > 100 µM (inactive) | 95.9 µM (inactive) | > 100 µM (inactive) | > 100 µM (inactive) | > 100 µM (inactive) | > 100 µM (inactive) | 52.2 µM (inactive) | > 100 µM (inactive) | > 100 µM (inactive) | > 100 µM (inactive) | > 100 µM (inactive) | – | – | –
2 | CN(C)CCCn1c(Cn2nc3ccccc3n2)nc2cc(C(F)(F)F)ccc21 | 19.3 µM (inactive) | 41 µM (inactive) | 41.5 µM (inactive) | 32.6 µM (inactive) | 29.7 µM (inactive) | 36 µM (inactive) | 8.71 µM (inactive) | 29 µM (inactive) | 14.6 µM (inactive) | – | 42 µM (inactive) | 44.1 µM (inactive) | 16.6 µM (inactive) | 15.2 µM (inactive) | 24 µM (inactive) | 10.5 µM (inactive) | 13.2 µM (inactive) | 15.3 µM (inactive) | –
3 | C[C@@H]1[C@@H](c2ccccc2)O[B-](c2ccccc2)(c2ccccc2)N1C | 65.8 µM (inactive) | 58.6 µM (inactive) | 33.1 µM (inactive) | 27.9 µM (inactive) | 63.1 µM (inactive) | 32.9 µM (inactive) | 27.8 µM (inactive) | 69 µM (inactive) | 34.5 µM (inactive) | 32 µM (inactive) | 64 µM (inactive) | 62.4 µM (inactive) | 30 µM (inactive) | 38.9 µM (inactive) | 32.8 µM (inactive) | 20.9 µM (inactive) | 12.9 µM (inactive) | 28.4 µM (inactive) | –
4 | Cc1ccc2nc(-c3ccc(N)c(Br)c3)sc2c1 | 29.1 µM (inactive) | 29 µM (inactive) | 36.3 µM (inactive) | 34.8 µM (inactive) | 31.5 µM (inactive) | 31.4 µM (inactive) | 19.7 µM (inactive) | – | 0.875 µM (active) | – | 10.6 µM (inactive) | 34.8 µM (inactive) | 79.1 µM (inactive) | 0.655 µM (active) | – | 5.27 µM (inactive) | 3.37 µM (inactive) | 26.7 µM (inactive) | –
5 | CC(NC(=O)C(C)(C)NC(=O)C(CC(=O)OCc1ccccc1)NC(=O)OCc1ccccc1)C(N)=O (stereo unspecified) (Cbz-Asp(OBn)-[Aib]-Ala-NH2; configuration not given here) | > 100 µM (inactive) | > 100 µM (inactive) | > 100 µM (inactive) | > 100 µM (inactive) | > 100 µM (inactive) | > 100 µM (inactive) | > 100 µM (inactive) | > 100 µM (inactive) | > 100 µM (inactive) | > 100 µM (inactive) | > 100 µM (inactive) | 43 µM (inactive) | > 100 µM (inactive) | > 100 µM (inactive) | > 100 µM (inactive) | > 100 µM (inactive) | > 100 µM (inactive) | > 100 µM (inactive) | –
6 | O=C(NCCC(F)(F)C(F)(F)C(F)(F)C(F)(F)F)NC1OC(CO)C(O)C(O)C1O (stereo unspecified) | > 100 µM (inactive) | > 100 µM (inactive) | > 100 µM (inactive) | > 100 µM (inactive) | > 100 µM (inactive) | > 100 µM (inactive) | > 100 µM (inactive) | > 100 µM (inactive) | – | > 100 µM (inactive) | > 100 µM (inactive) | > 100 µM (inactive) | > 100 µM (inactive) | > 100 µM (inactive) | > 100 µM (inactive) | > 100 µM (inactive) | > 100 µM (inactive) | > 100 µM (inactive) | > 100 µM (inactive)
7 | CCCCCCCCCCOc1ccc(/N=N/c2nnc(-c3ccc(OCCCCC)cc3)s2)cc1 | > 100 µM (inactive) | > 100 µM (inactive) | 93.5 µM (inactive) | > 100 µM (inactive) | > 100 µM (inactive) | > 100 µM (inactive) | > 100 µM (inactive) | > 100 µM (inactive) | > 100 µM (inactive) | > 100 µM (inactive) | > 100 µM (inactive) | 62.5 µM (inactive) | > 100 µM (inactive) | > 100 µM (inactive) | > 100 µM (inactive) | – | > 100 µM (inactive) | > 100 µM (inactive) | –
8 | CNC(=O)c1ccccc1-[s+]1c2ccccc2c(=O)n1C (stereo unspecified) | > 100 µM (inactive) | > 100 µM (inactive) | > 100 µM (inactive) | > 100 µM (inactive) | > 100 µM (inactive) | > 100 µM (inactive) | > 100 µM (inactive) | > 100 µM (inactive) | > 100 µM (inactive) | > 100 µM (inactive) | > 100 µM (inactive) | > 100 µM (inactive) | > 100 µM (inactive) | > 100 µM (inactive) | > 100 µM (inactive) | > 100 µM (inactive) | > 100 µM (inactive) | > 100 µM (inactive) | –
9 | COc1c(C)c(OC)c(C(=O)CC(C)C)c(OC)c1C | > 100 µM (inactive) | > 100 µM (inactive) | > 100 µM (inactive) | > 100 µM (inactive) | > 100 µM (inactive) | 65.6 µM (inactive) | > 100 µM (inactive) | > 100 µM (inactive) | > 100 µM (inactive) | 20.3 µM (inactive) | > 100 µM (inactive) | > 100 µM (inactive) | 40.3 µM (inactive) | 68.1 µM (inactive) | > 100 µM (inactive) | 49.9 µM (inactive) | > 100 µM (inactive) | > 100 µM (inactive) | –
10 | O=c1ccn2n1Cc1ccccc1C2 | > 100 µM (inactive) | > 100 µM (inactive) | > 100 µM (inactive) | > 100 µM (inactive) | > 100 µM (inactive) | > 100 µM (inactive) | > 100 µM (inactive) | > 100 µM (inactive) | > 100 µM (inactive) | > 100 µM (inactive) | > 100 µM (inactive) | > 100 µM (inactive) | > 100 µM (inactive) | > 100 µM (inactive) | > 100 µM (inactive) | 79.8 µM (inactive) | > 100 µM (inactive) | > 100 µM (inactive) | –
11 | CCOC(=O)c1sc2nc(SC)nc3c2c1NCN3C1CC1 | 48.2 µM (inactive) | > 100 µM (inactive) | > 100 µM (inactive) | > 100 µM (inactive) | > 100 µM (inactive) | > 100 µM (inactive) | > 100 µM (inactive) | > 100 µM (inactive) | – | > 100 µM (inactive) | > 100 µM (inactive) | > 100 µM (inactive) | > 100 µM (inactive) | 48.6 µM (inactive) | > 100 µM (inactive) | > 100 µM (inactive) | > 100 µM (inactive) | > 100 µM (inactive) | 38.8 µM (inactive)
